Measured values as given in publication PMC10819570, “Design, Synthesis, and Biological Evaluation of 2-Substituted Aniline Pyrimidine Derivatives as Potent Dual Mer/c-Met Inhibitors” (Molecules, 2024).
Values joined by “and” are separate entries in the source; they are usually repeats but may differ in a detail not shown here. Equal values may be shown once.

Assays:
MDA-MB-231 cells = assay: Antiproliferation assay (CCK-8), MDA-MB-231; format: cell-based; settings: Homo sapiens, MDA-MB-231; CCK-8, 72 h; read-out: IC50 antiproliferative MDA-MB0231
Description: (§1) The antiproliferative activities of the compounds against HepG2, MDA-MB-231, and HCT116 cell lines were tested by the standard CCK-8 method. Cell viability was measured by Cell Counting Kit-8 (Meilunbio, Dalian, China) according to the manufacturer’s instructions. Briefly, cancer cells were seeded into 96-well plates at a density of 2.5 × 10^3 cells per well. […] Subsequently, CCK-8 solution was added into each well and incubated for an additional 2 h. The absorbance at 450 nm was determined in each well using the BioTek Synergy HTX microplate reader. The assay was performed in triplicate, and each experiment was repeated three times.

HCT116 cells = assay: Antiproliferation assay (CCK-8), HCT116; format: cell-based; settings: Homo sapiens, HCT-116; CCK-8, 72 h; read-out: IC50 antiproliferative HCT116
Description: as §1, with “Cell” for “The antiproliferative activities of the compounds against HepG2, MDA-MB-231, and HCT116 cell lines were tested by the standard CCK-8 method. Cell”

HepG2 cells = assay: Antiproliferation assay (CCK-8), HepG2; format: cell-based; settings: Homo sapiens, HepG2; CCK-8, 72 h; read-out: IC50 antiproliferative HepG2
Description: as §1

c-Met kinase = c-Met kinase (Homo sapiens, UniProt P08581); assay: c-Met kinase inhibitory activity assay (in vitro); format: biochemical; settings: ATP 30 uM, enzyme 0.25 nM; means from three independent experiments
Description: (§2) The in vitro inhibition assays of all final compounds against Mer and c-Met kinase were performed by Shanghai Bioduro Biological Technology Co., Ltd. (Shanghai, China). We prepared 1× buffer: HEPES 50 mM, MgCl2 10 mM, EGTA 1 mM, NP-40 0.0001%, DTT 2 mM; compound dilution with DMSO. For test compounds, a 100 × final concentration solution was prepared. About 100 nL compounds were transferred to a 384-well plate by using the automated liquid handler. The final DMSO% in the assay is 1%. Enzyme stock solutions were diluted with 1× assay buffer to a concentration of 0.5 nM to make a 2× working solution. […] Substrate solutions were diluted with 1× assay buffer. About 5 μL mix or buffer was added manually to the assay plate (ATP final 30 uM and TK-Sub-Biotin final 2 uM) using a multichannel pipette, spun down at 1000 rpm, and centrifuged for 30 s. After incubating at 30 °C for 60 min, 10 μL of detection solution was added to each well of the assay, mixed briefly with a centrifuge, and equilibrated for another 60 min. The luminescence was recorded using Envision.

Mer kinase = target: T1, Mer kinase (Homo sapiens, UniProt Q12866); assay: Mer kinase inhibitory activity assay (in vitro); format: biochemical; settings: ATP 30 uM, enzyme 0.25 nM; means from three independent experiments
T1 sequence (Q12866 21-999): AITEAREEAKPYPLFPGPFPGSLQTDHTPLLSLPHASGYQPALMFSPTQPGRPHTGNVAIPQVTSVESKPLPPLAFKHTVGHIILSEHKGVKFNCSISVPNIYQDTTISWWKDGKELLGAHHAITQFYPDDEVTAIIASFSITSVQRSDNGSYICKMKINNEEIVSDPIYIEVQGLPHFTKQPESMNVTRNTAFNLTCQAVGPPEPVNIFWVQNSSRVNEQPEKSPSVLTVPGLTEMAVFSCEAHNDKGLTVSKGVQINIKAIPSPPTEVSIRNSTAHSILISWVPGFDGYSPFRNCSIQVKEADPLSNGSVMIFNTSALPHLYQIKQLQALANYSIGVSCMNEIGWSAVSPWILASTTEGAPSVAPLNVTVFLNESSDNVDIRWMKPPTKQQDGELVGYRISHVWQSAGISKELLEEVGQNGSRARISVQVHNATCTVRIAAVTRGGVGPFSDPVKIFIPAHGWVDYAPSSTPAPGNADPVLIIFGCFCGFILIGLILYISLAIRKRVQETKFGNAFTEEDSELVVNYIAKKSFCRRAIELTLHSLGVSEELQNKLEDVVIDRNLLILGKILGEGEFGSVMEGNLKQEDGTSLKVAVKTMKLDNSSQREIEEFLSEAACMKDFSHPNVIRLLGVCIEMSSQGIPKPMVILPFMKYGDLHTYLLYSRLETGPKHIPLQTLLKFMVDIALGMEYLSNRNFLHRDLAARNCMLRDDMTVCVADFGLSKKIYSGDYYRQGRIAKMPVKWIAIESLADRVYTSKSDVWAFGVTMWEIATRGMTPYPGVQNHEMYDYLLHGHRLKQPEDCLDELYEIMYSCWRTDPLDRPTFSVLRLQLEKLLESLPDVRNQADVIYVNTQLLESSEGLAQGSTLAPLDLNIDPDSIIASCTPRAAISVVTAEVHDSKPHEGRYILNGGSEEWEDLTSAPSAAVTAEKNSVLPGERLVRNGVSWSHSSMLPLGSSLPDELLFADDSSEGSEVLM
Description: as §2

[1] = Liver microsome stability assay; format: in vitro ADME; settings: pH 7.4, human liver microsomes 0.2 mg/mL, test compound 1 μM, NADPH; for microsomal CLint at 1 μM: read-out: CL Human; for half-life at 1 μM: read-out: T1/2 Human
Description: Stock solution (10 mM) of each of test compound was prepared in DMSO. The stock solution for each compound was then diluted into 200 μM with acetonitrile. Incubation mixtures were prepared in a total volume of 200 μL with final component concentrations as follows: 0.1 M PBS (pH 7.4), NADPH (2 mM), liver microsomes (0.2 mg/mL), and test compound (1 μM) or positive control. NAPDH was added after a 5 min preincubation of all other components at 37 °C, then pipette-mixed to achieve a homogenous suspension and immediately transferred 20 μL of the incubate as a 0 min sample to wells in a “Quenching” plate, followed by pipette-mixing. At 5, 15, 30, and 60 min, we pipette-mixed the incubate and serially transferred samples of 20 μL of the incubate per time point to wells in a separate “Quenching” plate, followed by pipette-mixing. In “Quenching” plates, 200 μL of acetonitrile was added with IS. The 96 wells were centrifuged at 4000 rpm for 10 min. Then 50 μL of supernatant was mixed with 50 μL of ddH2O and injected into the LC-MS/MS system for analysis.

c-Met kinase, sequence (P08581 25-1390): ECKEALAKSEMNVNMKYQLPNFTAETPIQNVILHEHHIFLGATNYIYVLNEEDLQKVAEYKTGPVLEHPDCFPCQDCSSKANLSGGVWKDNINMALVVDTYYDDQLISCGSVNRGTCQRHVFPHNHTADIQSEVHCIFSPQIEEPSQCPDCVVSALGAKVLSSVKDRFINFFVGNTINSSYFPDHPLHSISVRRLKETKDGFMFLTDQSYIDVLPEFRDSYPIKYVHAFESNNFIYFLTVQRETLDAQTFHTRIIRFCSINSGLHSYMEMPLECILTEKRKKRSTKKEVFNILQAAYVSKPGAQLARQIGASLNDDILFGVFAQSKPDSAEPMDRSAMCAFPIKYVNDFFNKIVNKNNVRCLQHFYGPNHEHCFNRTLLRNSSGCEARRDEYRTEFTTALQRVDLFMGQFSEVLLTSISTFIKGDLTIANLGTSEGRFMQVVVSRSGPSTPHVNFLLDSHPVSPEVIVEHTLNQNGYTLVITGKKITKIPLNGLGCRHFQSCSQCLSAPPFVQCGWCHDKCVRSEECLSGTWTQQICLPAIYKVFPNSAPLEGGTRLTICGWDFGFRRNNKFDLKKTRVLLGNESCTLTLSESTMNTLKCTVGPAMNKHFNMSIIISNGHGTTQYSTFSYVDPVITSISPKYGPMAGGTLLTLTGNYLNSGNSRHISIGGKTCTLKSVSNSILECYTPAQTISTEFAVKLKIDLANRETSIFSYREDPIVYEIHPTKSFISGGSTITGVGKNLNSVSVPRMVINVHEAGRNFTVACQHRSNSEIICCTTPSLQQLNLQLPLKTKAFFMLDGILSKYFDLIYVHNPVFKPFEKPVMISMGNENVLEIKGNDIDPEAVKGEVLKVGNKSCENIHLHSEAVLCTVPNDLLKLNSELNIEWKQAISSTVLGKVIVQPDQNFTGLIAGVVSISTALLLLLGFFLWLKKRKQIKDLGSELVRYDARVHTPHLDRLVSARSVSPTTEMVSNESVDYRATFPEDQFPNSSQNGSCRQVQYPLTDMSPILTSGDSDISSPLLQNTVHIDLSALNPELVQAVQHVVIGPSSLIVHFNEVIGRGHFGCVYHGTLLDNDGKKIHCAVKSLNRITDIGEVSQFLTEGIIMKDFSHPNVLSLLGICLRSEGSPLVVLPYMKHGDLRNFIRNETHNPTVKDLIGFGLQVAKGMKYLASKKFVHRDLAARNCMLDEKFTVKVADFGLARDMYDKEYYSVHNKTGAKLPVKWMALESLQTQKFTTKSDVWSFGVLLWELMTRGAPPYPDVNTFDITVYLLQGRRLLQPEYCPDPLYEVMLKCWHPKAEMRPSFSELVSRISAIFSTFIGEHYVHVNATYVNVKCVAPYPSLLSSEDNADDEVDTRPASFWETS

Structure (SMILES)	IC50 (c-Met kinase) [nM]	IC50 (Mer kinase)	further results
COc1cc2nccc(Oc3ccc(NC(=O)C4(C(=O)Nc5ccc(F)cc5)CC4)cc3)c2cc1OC [Cabozantinib, reference compound]			IC50 (MDA-MB-231 cells): 29000 nM; IC50 (HCT116 cells): 7820 nM; IC50 (HepG2 cells): 1720 nM
Cc1c(C(=O)Nc2ccc(Oc3ccnc(Nc4ccc(C(=O)NCCCN5CCOCC5)cc4)n3)cc2)c(=O)n(-c2ccccc2)n1C [Compound 14a]	151 ± 22.6	8.1 nM and 7.9 nM	
Cc1c(C(=O)Nc2ccc(Oc3ccnc(Nc4ccc(NC(=O)CN5CCN(C)CC5)cc4)n3)cc2)c(=O)n(-c2ccccc2)n1C [Compound 14b]	179 ± 25.2	9.6 nM and 9.4 nM	
Cc1c(C(=O)Nc2ccc(Oc3ccnc(Nc4ccc(NS(=O)(=O)c5ccccc5)cc4)n3)cc2)c(=O)n(-c2ccccc2)n1C [Compound 14c]	> 1000	166 ± 21.6 nM	
Cc1c(C(=O)Nc2ccc(Oc3ccnc(Nc4cccc(NC(=O)CN5CCN(C)CC5)c4)n3)cc2)c(=O)n(-c2ccccc2)n1C [Compound 14d]	144 ± 17.3	24.2 ± 2.6 nM	
Cc1c(C(=O)Nc2ccc(Oc3ccnc(Nc4cccc(C(=O)NCCCN5CCOCC5)c4)n3)cc2)c(=O)n(-c2ccccc2)n1C [Compound 14e]	321 ± 25.6	40.3 ± 3.6 nM	
Cc1c(C(=O)Nc2ccc(Oc3ccnc(Nc4ccc(NC(=O)CN5CCN(C)CC5)c(C#N)c4)n3)cc2)c(=O)n(-c2ccccc2)n1C [Compound 14g]	89.4 ± 12.6	7.1 ± 0.9 nM	
Cc1c(C(=O)Nc2ccc(Oc3ccnc(Nc4ccc(NC(=O)CN5CCN(C)CC5)c(F)c4)n3)cc2)c(=O)n(-c2ccccc2)n1C [Compound 14h]	74.9 ± 12.2	12.5 ± 2 nM	
Cc1c(C(=O)Nc2ccc(Oc3ccnc(Nc4ccc(N(C)C(=O)CN5CCN(C)CC5)cc4)n3)cc2)c(=O)n(-c2ccccc2)n1C [Compound 14i]	224 ± 24.6	97.1 ± 12.7 nM	
CC(=O)N1CCN(c2ccc(Nc3nccc(Oc4ccc(NC(=O)C5(C(=O)Nc6ccc(F)cc6)CC5)cc4)n3)cc2)CC1 [Compound 18a]	15.4 ± 1.4	85.3 ± 6.8 nM	
O=C(Nc1ccc(F)cc1)C1(C(=O)Nc2ccc(Oc3ccnc(Nc4ccc(NS(=O)(=O)c5ccccc5)cc4)n3)cc2)CC1 [Compound 18b]	941 ± 65.9	> 10000 nM	
O=C(NCCCN1CCOCC1)c1ccc(Nc2nccc(Oc3ccc(NC(=O)C4(C(=O)Nc5ccc(F)cc5)CC4)cc3)n2)cc1 [Compound 18d]	52.7 ± 8.5	42.4 ± 5.8 nM	
COCCNc1ccc(Nc2nccc(Oc3ccc(NC(=O)C4(C(=O)Nc5ccc(F)cc5)CC4)cc3)n2)cc1 [Compound 18e]	77.3 ± 13.1	159 ± 17.4 nM	
O=C(Nc1ccc(F)cc1)C1(C(=O)Nc2ccc(Oc3ccnc(Nc4ccc(CCC(O)c5ccccc5)cc4)n3)cc2)CC1 (stereo not drawn) [Compound 18f]	> 1000	463 ± 55.4 nM	
CCN1CCN(CC(=O)Nc2ccc(Nc3nccc(Oc4ccc(NC(=O)C5(C(=O)Nc6ccc(F)cc6)CC5)cc4)n3)cc2)CC1 [Compound 18g]	48.7 ± 8.7	20.3 ± 3.2 nM	
CC(C)N1CCN(CC(=O)Nc2ccc(Nc3nccc(Oc4ccc(NC(=O)C5(C(=O)Nc6ccc(F)cc6)CC5)cc4)n3)cc2)CC1 [Compound 18h]	42.6 ± 8.1	12.4 ± 1.9 nM	
O=C(CN1CCN(CC2CC2)CC1)Nc1ccc(Nc2nccc(Oc3ccc(NC(=O)C4(C(=O)Nc5ccc(F)cc5)CC4)cc3)n2)cc1 [Compound 18i]	77.1 ± 15.2	30.9 ± 5.3 nM	
CC(=O)N1CCN(CC(=O)Nc2ccc(Nc3nccc(Oc4ccc(NC(=O)C5(C(=O)Nc6ccc(F)cc6)CC5)cc4)n3)cc2)CC1 [Compound 18j]	32.8 ± 5.8	57.5 ± 9.4 nM	
CN1CCN(CC(=O)Nc2ccc(Nc3nccc(Oc4ccc(NC(=O)C5(C(=O)Nc6ccc(F)cc6)CC5)cc4)n3)cc2C#N)CC1 [Compound 18k]	51.2 ± 8	10.2 ± 1.4 nM	
CN1CCN(CC(=O)Nc2ccc(Nc3nccc(Oc4ccc(NC(=O)C5(C(=O)Nc6ccc(F)cc6)CC5)cc4)n3)cc2F)CC1 [Compound 18l]	48.7 ± 8.2	18.3 ± 2.7 nM	microsomal CLint at 1 μM [1]: 360 µL/min/mg; half-life at 1 μM [1]: 9.6 min
CN1CCN(CC(=O)N(C)c2ccc(Nc3nccc(Oc4ccc(NC(=O)C5(C(=O)Nc6ccc(F)cc6)CC5)cc4)n3)cc2)CC1 [Compound 18m]	74.4 ± 13.5	126 ± 17.8 nM	
CC(C(=O)Nc1ccc(Nc2nccc(Oc3ccc(NC(=O)C4(C(=O)Nc5ccc(F)cc5)CC4)cc3)n2)cc1)N1CCN(C)CC1 (stereo not drawn) [Compound 18n]	30.7 ± 4.8	31.6 ± 5.4 nM	microsomal CLint at 1 μM [1]: 290 µL/min/mg; half-life at 1 μM [1]: 11.9 min
CN1CCN(CC(=O)Nc2cccc(Nc3nccc(Oc4ccc(NC(=O)C5(C(=O)Nc6ccc(F)cc6)CC5)cc4)n3)c2)CC1 [Compound 18o]	39.8 ± 6.6	24.8 ± 3.3 nM	microsomal CLint at 1 μM [1]: 400 µL/min/mg; half-life at 1 μM [1]: 8.6 min
C[C@]12CC[C@H]3[C@@H](CCC4=CC(=O)CC[C@@]43C)[C@@H]1CC[C@@H]2O [Testosterone, reference compound]			half-life at 1 μM [1]: 32.1 min
